# Target: T1, Piezo1 ion channel (Mus musculus, UniProt E2JF22)
# T1 construct: expressed in transfected cells; host or cells: HEK293
# Experiment: c-Fos immunostaining of cellular activation in HEK293 cells expressing Piezo1
# Format: cell-based
# Settings: Yoda1 10 µM, Fig. 2, Group F
# Experimental: As a model system, HEK293 cells were utilized, and the Piezo1 ion channel, a mechanosensitive ion channel, was expressed in these cells to enable responsiveness to mechanical forces. To achieve this, 5×10^5 cells were seeded in a 60 mm dish, and 5 µg of CMV-Piezo1 plasmid was transfected using Lipofectamine 3000, following the standard protocol.
# HEK293 cells expressing Piezo1 were then exposed to two different ultrasound frequencies, 2.0 MHz and 6.25 MHz, for 10 minutes, corresponding to the resonance frequency(ies) of Piezo1 in HEK293 cells. The objective was to observe differences in cellular activation based on frequency. The extent of cellular activation was quantified by immunostaining for c-Fos, a reporter of intracellular calcium ion influx, and the number of activated cells was represented as a percentage.
# T1 sequence (E2JF22 whole entry): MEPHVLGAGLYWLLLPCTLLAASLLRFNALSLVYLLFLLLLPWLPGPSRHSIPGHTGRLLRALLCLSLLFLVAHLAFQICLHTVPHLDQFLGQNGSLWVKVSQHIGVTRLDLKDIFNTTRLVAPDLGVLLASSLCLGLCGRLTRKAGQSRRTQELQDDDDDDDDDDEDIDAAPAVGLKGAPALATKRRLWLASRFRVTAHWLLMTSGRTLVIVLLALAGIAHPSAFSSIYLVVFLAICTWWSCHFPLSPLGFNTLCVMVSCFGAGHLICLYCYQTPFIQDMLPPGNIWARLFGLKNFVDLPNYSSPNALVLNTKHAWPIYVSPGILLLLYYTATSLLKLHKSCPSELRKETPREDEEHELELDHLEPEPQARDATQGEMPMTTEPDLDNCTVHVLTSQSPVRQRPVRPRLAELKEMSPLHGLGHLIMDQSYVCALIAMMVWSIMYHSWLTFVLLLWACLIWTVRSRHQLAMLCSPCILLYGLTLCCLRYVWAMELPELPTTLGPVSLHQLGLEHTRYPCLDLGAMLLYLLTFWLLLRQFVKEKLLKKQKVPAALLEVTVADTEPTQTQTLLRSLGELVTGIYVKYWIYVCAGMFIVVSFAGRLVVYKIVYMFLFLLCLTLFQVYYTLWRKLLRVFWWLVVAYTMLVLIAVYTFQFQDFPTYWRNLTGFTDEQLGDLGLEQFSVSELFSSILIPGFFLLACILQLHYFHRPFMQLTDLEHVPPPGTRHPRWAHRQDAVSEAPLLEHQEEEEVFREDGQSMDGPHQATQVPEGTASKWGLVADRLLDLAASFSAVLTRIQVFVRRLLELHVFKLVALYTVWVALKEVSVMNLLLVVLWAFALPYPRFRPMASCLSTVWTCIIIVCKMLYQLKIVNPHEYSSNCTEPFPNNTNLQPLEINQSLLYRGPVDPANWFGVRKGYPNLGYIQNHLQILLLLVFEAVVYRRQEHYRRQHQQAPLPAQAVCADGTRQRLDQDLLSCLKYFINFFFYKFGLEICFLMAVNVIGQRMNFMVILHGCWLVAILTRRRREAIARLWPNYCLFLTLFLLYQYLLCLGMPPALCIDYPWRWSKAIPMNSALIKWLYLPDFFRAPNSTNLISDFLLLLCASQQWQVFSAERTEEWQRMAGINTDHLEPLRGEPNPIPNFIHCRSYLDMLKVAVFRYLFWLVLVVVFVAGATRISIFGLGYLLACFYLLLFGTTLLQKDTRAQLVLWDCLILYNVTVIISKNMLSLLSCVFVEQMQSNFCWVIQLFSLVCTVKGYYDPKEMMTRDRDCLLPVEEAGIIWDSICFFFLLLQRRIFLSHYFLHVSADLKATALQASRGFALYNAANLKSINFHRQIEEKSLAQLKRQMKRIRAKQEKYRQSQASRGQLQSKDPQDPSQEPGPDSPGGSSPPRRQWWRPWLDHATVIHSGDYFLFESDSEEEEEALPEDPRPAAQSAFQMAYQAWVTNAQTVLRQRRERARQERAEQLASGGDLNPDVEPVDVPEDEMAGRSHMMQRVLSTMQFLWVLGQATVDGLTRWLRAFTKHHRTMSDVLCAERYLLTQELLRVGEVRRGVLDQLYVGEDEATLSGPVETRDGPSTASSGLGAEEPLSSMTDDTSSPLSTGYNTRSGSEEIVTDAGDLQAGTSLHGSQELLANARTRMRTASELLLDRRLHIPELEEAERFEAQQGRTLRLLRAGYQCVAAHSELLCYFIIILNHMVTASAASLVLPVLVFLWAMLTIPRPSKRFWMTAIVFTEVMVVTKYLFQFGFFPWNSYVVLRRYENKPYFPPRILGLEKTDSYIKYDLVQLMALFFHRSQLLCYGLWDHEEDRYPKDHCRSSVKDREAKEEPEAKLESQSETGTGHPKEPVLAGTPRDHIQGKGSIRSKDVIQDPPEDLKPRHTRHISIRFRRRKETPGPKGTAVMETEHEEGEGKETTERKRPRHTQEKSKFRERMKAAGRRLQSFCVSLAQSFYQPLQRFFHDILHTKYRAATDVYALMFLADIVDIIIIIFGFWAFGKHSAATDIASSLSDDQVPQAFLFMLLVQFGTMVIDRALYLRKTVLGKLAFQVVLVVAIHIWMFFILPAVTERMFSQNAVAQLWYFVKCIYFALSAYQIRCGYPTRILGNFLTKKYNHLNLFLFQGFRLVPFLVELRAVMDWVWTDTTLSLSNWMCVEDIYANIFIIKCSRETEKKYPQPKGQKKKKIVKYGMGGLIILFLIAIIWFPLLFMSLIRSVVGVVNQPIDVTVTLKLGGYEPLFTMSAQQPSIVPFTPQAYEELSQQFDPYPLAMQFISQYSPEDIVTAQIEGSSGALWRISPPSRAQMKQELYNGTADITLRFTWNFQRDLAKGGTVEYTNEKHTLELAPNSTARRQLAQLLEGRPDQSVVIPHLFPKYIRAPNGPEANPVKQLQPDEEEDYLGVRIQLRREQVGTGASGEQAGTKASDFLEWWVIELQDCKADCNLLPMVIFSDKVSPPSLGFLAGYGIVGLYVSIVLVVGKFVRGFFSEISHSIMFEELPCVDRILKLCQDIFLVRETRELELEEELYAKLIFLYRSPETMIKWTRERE
smiles,measurement,value
Clc1cccc(Cl)c1CSc1nnc(-c2cnccn2)s1 [Yoda1],"activation (percentage of activated cells, c-Fos)",74%

# From EP4588510A1, “OPENING/CLOSING CONTROL DEVICE FOR TARGET FORCE-SENSITIVE ION CHANNEL THAT GENERATES SOUND WAVE PATTERN BY USING RESONANCE FREQUENCY(IES), AND BRAIN FUNCTION CONTROL DEVICE” (UIF (University Industry Foundation), Yonsei University, priority 2022, dated 2024)
